# Experimental data: patent publication US20240269337A1, “METHOD AND SYSTEM FOR COATING FILTER MEDIA” (MOLECULAR PLASMA GROUP SA, priority 2021, published 2024)
# How the values were obtained:
# [1] = tested on: Staphylococcus aureus (gram-positive); test: Quantitative antibacterial activity test of treated materials (OECD / ISO 22197/20743), Gram +; assay type: cell-based, S. aureus ATCC6538P
# [2] = tested on: Escherichia coli (gram-negative); test: Quantitative antibacterial activity test of treated materials (OECD / ISO 22197/20743), Gram −; assay type: cell-based
# [3] = tested on: MS2 virus; test: Virucidal testing with MS2 droplets on coated filter media 2.2 (Example 3); assay type: cell-based; settings: 2 hours incubation
# Protocol: Filter media 2.2 were coated according to the process parameters of Table 9 using the same PlasmaLine® equipment. For each coating process, 2 samples were coated with the outer waved layer exposed to the plasma source, and 2 samples were coated with the outer backing layer surface exposed.
# Two precursors were used: an aqueous solution comprising 40% by weight of citric acid, and a solution of 15% by weight of chlorocresol in ethanol.
# The anti-viral properties were tested by application of a fixed number of water droplets containing the MS2 virus on the surface of the samples. The droplets were applied to the surface that was exposed to the plasma source during the atmospheric pressure plasma coating process. After an incubation of 2 hours, the samples were immerged in a recuperation solution to extract the virus from the samples. The recuperation solution was placed in a petri dish wherein the E. coli bacteria grew, and the number of viral zones (zones comprising death bacteria) are counted. A lower number of viral zones indicates a larger neutralisation of the virus by the plasma coating.
# The Virucide result (log value) gives the log value of the number of living viruses found in the recuperation solution.
# [4] = pH test (change in pH value before and after coating, penetration depth); assay type: physicochemical; settings: Outer wave sample
# Protocol: The penetration depth was measured by measuring the change in pH value before and after coating on samples of the outer wave layer 51. […] Presence of citric acid was also detected in the intermediate layer 52.
# [5] = tested on: Phi-6 bacteriophage; test: Phi-6 virucidal test (modified ISO 10705-1:1995); assay type: cell-based; settings: 20 wt% citric acid precursor, Outer wave sample, 2-hour contact
# [6] = tested on: MS2; test: MS2 test after accelerated ageing (ASTM F1980-16), Example 4; assay type: cell-based
# Source text: Same filter media 2.2 as in example 3 was used. The filter media was placed with the outer backing layer on a support platform and the outer wave layer exposed to the coating precursor-comprising plasma discharge (or the plasma source) during the atmospheric pressure plasma coating process.
# Two different precursors were used: an aqueous solution comprising 50% by weight of citric acid (CAS 77-92-9), and an aqueous solution comprising 25% by weight n-alkyl(C12-16)-n,n-dimethyl-n-benzylammonium chloride (BTC50E; CAS 68424-85-1) (1:1 w/w dilution in water).
# Filter media samples were coated with each coating by passing 3 or 6 times through the plasma discharge area. The virucidal performance was tested by the MS2 test as explained above. An accelerated ageing test was performed according to ASTM F1980-16. […] An ageing test of 3 days at 55° C. and 75% RH represents 1 month in real life conditions. The results of the virucidal performance after ageing gives an idea of the durability of the coating over time.
# [7] = exposed side Backing layer, 5 passes
# [8] = exposed side Backing layer, 10 passes
# [9] = exposed side Backing layer, 20 passes
# [10] = exposed side waved layer, 5 passes
# [11] = exposed side waved layer, 10 passes
# [12] = exposed side waved layer, 20 passes
# [13] = 3 passes, 0 days oven (0 months real life)
# [14] = 3 passes, 9 days oven (3 months real life)
# [15] = 3 passes, 19 days oven (6 months real life)
# [16] = 3 passes, 27 days oven (9 months real life)
# [17] = 3 passes, 36 days oven (12 months real life)
# [18] = 6 passes, 0 days oven (0 months real life)
# [19] = 6 passes, 6 days oven 55° C. 75% RH (2 months real life)
# [20] = 6 passes, 9 days oven (3 months real life)
# [21] = 6 passes, 19 days oven (6 months real life)
# [22] = 6 passes, 27 days oven (9 months real life)
# [23] = 6 passes, 36 days oven (12 months real life)
# [24] = 3 passes, 3 days oven 55° C. 75% RH (1 month real life)
# [25] = 3 passes, 6 days oven 55° C. 75% RH (2 months real life)
# [26] = 6 passes, 3 days oven 55° C. 75% RH (1 month real life)
compound,measurement,setting,value
"C=C(C)C(=O)OCCN(C)C [DIMAEMA, 2-(Dimethylamino) ethyl methacrylate]",% Gram + bacteria reduced,[1]; PPNW substrate 25 g/m^2,>99.994%
same,Gram + log reduction,[1]; PPNW substrate 25 g/m^2,>4.2 log
same,% Gram + bacteria reduced,[1]; Tyvek substrate,>99.95%
same,Gram + log reduction,[1]; Tyvek substrate,>3.3 log
same,% Gram − bacteria reduced,[2]; PPNW substrate 25 g/m^2,>99.9996%
same,Gram − log reduction,[2]; PPNW substrate 25 g/m^2,>5.4 log
same,% Gram − bacteria reduced,[2]; Tyvek substrate,20.6%
same,Gram − log reduction,[2]; Tyvek substrate,0.1 log
"PVP-12 Poly(vinylpyrrolidone)- Iodine complex [PVP-I2, reference compound]",% Gram + bacteria reduced,[1]; PPNW substrate 25 g/m^2,>99.994%
same,Gram + log reduction,[1]; PPNW substrate 25 g/m^2,>4.2 log
same,% Gram − bacteria reduced,[2]; PPNW substrate 25 g/m^2,>99.9996%
same,Gram − log reduction,[2]; PPNW substrate 25 g/m^2,>5.4 log
Citric Acid,Virus neutralized (%),[3]; [7],93.7%
same,Viruside results (log red),[3]; [7],1.2 log red
same,Virus neutralized (%),[3]; [8],96.0%
same,Viruside results (log red),[3]; [8],1.4 log red
same,Virus neutralized (%),[3]; [9],99.8%
same,Viruside results (log red),[3]; [9],2.7 log red
same,Virus neutralized (%),[3]; [10],80.0%
same,Viruside results (log red),[3]; [10],0.7 log red
same,Virus neutralized (%),[3]; [11],93.7%
same,Viruside results (log red),[3]; [11],1.2 log red
same,Virus neutralized (%),[3]; [12],98.7%
same,Viruside results (log red),[3]; [12],1.9 log red
same,pH test,[4]; 6 passes,1.66
same,pH test,[4]; 10 passes,1.72
same,pH test,[4]; 20 passes,1.78
same,Avg. Phi-6 (log red),[5]; 6 passes,>2.2 log red
same,Phi-6 neutralized (%),[5]; 6 passes,>99.37%
same,Avg. Phi-6 (log red),[5]; 10 passes,>2.2 log red
same,Phi-6 neutralized (%),[5]; 10 passes,>99.37%
same,Avg. Phi-6 (log red),[5]; 20 passes,>2.2 log red
same,Phi-6 neutralized (%),[5]; 20 passes,>99.37%
same,% Gram + bacteria reduced,[1]; PPNW substrate 25 g/m^2,>99.995%
same,Gram + log reduction,[1]; PPNW substrate 25 g/m^2,>4.3 log
same,% Gram + bacteria reduced,[1]; Tyvek substrate,>99.98%
same,Gram + log reduction,[1]; Tyvek substrate,>3.8 log
same,Virus neutralized (%),[6]; [13],99.86%
same,Viruside results (log red),[6]; [13],2.86 log red
same,Virus neutralized (%),[6]; [14],97.76%
same,Virus neutralized (%),[6]; [15],97.38%
same,Virus neutralized (%),[6]; [16],99.00%
same,Virus neutralized (%),[6]; [17],97.91%
same,Virus neutralized (%),[6]; [18],99.78%
same,Viruside results (log red),[6]; [18],2.65 log red
same,Virus neutralized (%),[6]; [19],98.09%
same,Viruside results (log red),[6]; [19],1.72 log red
same,Virus neutralized (%),[6]; [20],96.45%
same,Virus neutralized (%),[6]; [21],95.91%
same,Virus neutralized (%),[6]; [22],97.61%
same,Virus neutralized (%),[6]; [23],93.97%
same,% Gram − bacteria reduced,[2]; PPNW substrate 25 g/m^2,>99.999%
same,Gram − log reduction,[2]; PPNW substrate 25 g/m^2,>5.0 log
same,% Gram − bacteria reduced,[2]; Tyvek substrate,97.5%
same,Gram − log reduction,[2]; Tyvek substrate,1.6 log
"CCCCCCCCCCCCCCCCCC[N+](C)(C)CCC[Si](OC)(OC)OC.[Cl-] [SiQAM, Dimethyloctadecyl[3-(trimethoxysilyl)propyl] ammonium chloride]",% Gram + bacteria reduced,[1]; PPNW substrate 25 g/m^2,>99.994%
same,Gram + log reduction,[1]; PPNW substrate 25 g/m^2,>4.2 log
same,% Gram + bacteria reduced,[1]; Tyvek substrate,>99.95%
same,Gram + log reduction,[1]; Tyvek substrate,>3.3 log
same,% Gram − bacteria reduced,[2]; PPNW substrate 25 g/m^2,>99.9996%
same,Gram − log reduction,[2]; PPNW substrate 25 g/m^2,>5.4 log
same,% Gram − bacteria reduced,[2]; Tyvek substrate,>98.7%
same,Gram − log reduction,[2]; Tyvek substrate,>1.9 log
"Cc1cc(O)ccc1Cl [Chlorocresol, reference compound]",Virus neutralized (%),[3]; [7],68.4%
same,Viruside results (log red),[3]; [7],0.5 log red
same,Virus neutralized (%),[3]; [8],98.0%
same,Viruside results (log red),[3]; [8],1.7 log red
same,Virus neutralized (%),[3]; [10],36.9%
same,Viruside results (log red),[3]; [10],0.2 log red
same,Virus neutralized (%),[3]; [11],74.9%
same,Viruside results (log red),[3]; [11],0.6 log red
same,Virus neutralized (%),[3]; [12],84.2%
same,Viruside results (log red),[3]; [12],0.8 log red
"n-alkyl(C12-16)-n,n-dimethyl-n-benzylammonium chloride [BTC50E]",Virus neutralized (%),[6]; [13],99.57%
same,Viruside results (log red),[6]; [13],2.37 log red
same,Virus neutralized (%),[6]; [24],99.96%
same,Viruside results (log red),[6]; [24],3.38 log red
same,Virus neutralized (%),[6]; [25],99.74%
same,Viruside results (log red),[6]; [25],2.59 log red
same,Virus neutralized (%),[6]; [14],99.35%
same,Virus neutralized (%),[6]; [15],99.86%
same,Virus neutralized (%),[6]; [16],99.89%
same,Virus neutralized (%),[6]; [17],99.98%
same,Virus neutralized (%),[6]; [18],99.83%
same,Viruside results (log red),[6]; [18],2.78 log red
same,Virus neutralized (%),[6]; [26],99.82%
same,Viruside results (log red),[6]; [26],2.75 log red
same,Virus neutralized (%),[6]; [19],99.83%
same,Viruside results (log red),[6]; [19],2.78 log red
same,Virus neutralized (%),[6]; [20],98.88%
same,Virus neutralized (%),[6]; [21],99.83%
same,Virus neutralized (%),[6]; [22],99.70%
same,Virus neutralized (%),[6]; [23],98.59%
Benzalkonium chloride [reference compound],% Gram + bacteria reduced,[1]; PPNW substrate 25 g/m^2,>99.994%
same,Gram + log reduction,[1]; PPNW substrate 25 g/m^2,>4.2 log
same,% Gram + bacteria reduced,[1]; Tyvek substrate,>99.5%
same,Gram + log reduction,[1]; Tyvek substrate,>3.3 log
same,% Gram − bacteria reduced,[2]; PPNW substrate 25 g/m^2,99.9996%
same,Gram − log reduction,[2]; PPNW substrate 25 g/m^2,5.4 log
same,% Gram − bacteria reduced,[2]; Tyvek substrate,98.7%
same,Gram − log reduction,[2]; Tyvek substrate,1.9 log
